The assay has as its system HT-29 cells. Kind of assay: HT-29 necroptosis cell viability assay (TNF-α/SMAC mimetic/zVAD-FMK, CellTiter-Glo). In kind it is cell-based. The note with it: Homo sapiens, read-out: Activity. As for the experimental part: Compounds 1-702 of the disclosure were tested for biological activity, following the experimental procedures described below.
• Cell line: HT-29 (ATCC® HTB-38™) • Culture medium: McCOY's 5A, Gibco, Cat No. 16600-082 • FBS, Gibco, Cat No. 10099-141 C • Trypsin: Gibco, Cat No. 25200-056 • DMSO: Sigma, Cat No. 67-68-5, 1L • Assay plate: Corning #3903 • Compound dilution plate: Corning #3357 • Inducers: TNFα, GenScript, Cat No. Z01001-50, • SmacM, Cat. No., HY-15989, MedChemExpress (MCE) • Z_VAD FMK, TargetMol, T6013 • Cell Titer-Glo® Luminescent Cell Viability Assay Kit: Promega, Cat No. G7573 • EnVision: PerkinElmer, 2105-0010
• 1. HT-29 cells were checked every day to make sure that they were healthy and growing as expected. They were subjected to sub-culturing when they were approximately 80% confluent. • 2. The culture medium, McCOY's 5A medium (Gibco, Cat No. 16600-082) with 10% fetal bovine serum or FBS (Gibco, Cat No. 10099-141C), was pre-warmed in a 37° C. water bath for at least 30 min. • 3. When the cells had reached a desired level of confluency of 80% in a T75 flask, the medium was aspirated, and the cells were washed with warm phosphate buffered saline or PBS two times. • 4. 2-3 ml fresh warm trypsin (Gibco, Cat No. 25200-056) solution was added to the washed cells. The flask with the cells was transferred to a 37° C. incubator. • 5. After 5 minutes, the side of the flask was tapped, and the flask was examined under a microscope for detachment of the cells to the flask. If necessary, the cells were kept in the incubator for an additional 5-10 minutes, with occasional tapping, until lifting was complete. • 6. The trypsin reaction was neutralized by transferring 6-9 ml cell culture medium to sterile 15 ml conical tubes, and by centrifuging the cell culture at 300×g for 7 minutes to pellet the cells (supernatant decanted). • 7. The cells were resuspended in fresh cell culture medium and the cell counting was performed using a hemocytometer. • 8. 100 μl of the resuspended cell culture medium containing ˜5,000 cells were transferred into each well of the sterile 96-well cell culture plate (Corning 3903) and cultured overnight at 37° C. with 5% CO2.
• 1. All test compounds were dissolved in DMSO (Dimethyl sulfoxide) to create a 20 mM stock. • 2. 3 μl of 20 mM stock of each compound was mixed with 27 μl DMSO, and the compound solution was further diluted at a titration ratio of 1:3 (20 μl compound solution+40 μl DMSO) till the 10 points end. • 3. All culture medium was removed from assay plates filled with HT-29 cell cultures. The cells were then washed with 1 PBS, and resuspsended in fresh, FBS-free McCOY's 5A medium containing a cocktail of TNF-α (10 ng/ml), a SMAC mimetic compound (6 μM) and Z-VAD-fluoromethylketone or zVAD-FMK (10 μM) to stimulate the HT-29 cells to increase RIP1 kinase levels and necroptosis. • 4. 0.5 μL of the diluted compound solution was added to the corresponding 96-well assay plates. • 5. The assay plates were incubated for 20 hours at 37° C. with 5% CO2.
• 1. The CellTiter-Glo® Luminescent Cell Viability Assay was employed to detect the ATP levels of viable HT-29 cells. • 2. The CellTiter-Glo® buffer and the lyophilized substrate were equilibrated to room temperature prior to use. • 3. The CellTiter-Glo® substrate was resuspended with CellTiter-Glo® buffer, then mixed by gently vortexing to obtain a homogeneous solution. • 4. 20 μl of the enzyme/substrate mixture was transferred by multi-channel pipetting into 96-well assay plates. • 5. The assay plates were placed on an orbital shaker and the contents were shaken for 3 minutes to induce cell lysis. • 6. The assay plates were incubated at room temperature for 10 minutes to stabilize the luminescent signal. • 7. The luminescence signals were read and recorded with EnVision. • 8. The geometric mean IC50 values were calculated from 10 points response dose with duplicates. […]

The mark [1] stands for this setting: HT-29, HT-29 necroptosis cell viability, IC50 class symbols.
[2] abbreviates: HT-29, HT-29 necroptosis cell viability assay, class symbols for IC50.
Setting [3] is: HT-29 cells stimulated with TNF-α (10 ng/ml), SMAC mimetic (6 μM) and zVAD-FMK (10 μM), 20 hours, CellTiter-Glo ATP luminescence, geometric mean IC50 from 10 points.

This passage reports IC50 results from patent US20250179061A1 (SIRONAX LTD., priority 2022, published 2025).

Where two headings read alike, the source gives them in different places.

With `N#CC1(CNc2cc(Oc3ccc(-n4ncn(Cc5c(F)cccc5F)c4=O)cc3)ccn2)CC1` [Example 381, 1-(((4-(4-(4-(2,6-difluorobenzyl)-5-oxo-4,5-dihydro-1H-1,2,4-triazol-1-yl)phenoxy)pyridin-2-yl)amino)methyl)cyclopropane-1-carbonitrile], under setting [1], the IC50 was less than 100 nM.
Take `C[C@@H]1CN(c2cc(Oc3ccc(-n4ncn(Cc5c(F)cccc5F)c4=O)cc3)ccn2)C[C@H](C)O1` [Example 382, 4-(2,6-difluorobenzyl)-2-(4-((2-((2R,6S)-2,6-dimethylmorpholino)pyridin-4-yl)oxy)phenyl)-2,4-dihydro-3H-1,2,4-triazol-3-one]: the IC50 under setting [1] is 100 to 1000 nM.
Turning to `C[C@H]1[C@@H](C#N)CN1c1nccc(Oc2ccc(-n3ncn(Cc4c(F)cccc4F)c3=O)cc2)c1F` [Example 242, (2S,3S)-1-(4-(4-(4-(2,6-difluorobenzyl)-5-oxo-4,5-dihydro-1H-1,2,4-triazol-1-yl)phenoxy)-3-fluoropyridin-2-yl)-2-methylazetidine-3-carbonitrile], the IC50 under setting [1] was less than 100 nM.
For `CCOC(=O)C(=O)c1nc(C)c(Oc2ccc(-n3ncn(Cc4c(F)cccc4F)c3=O)cc2F)s1` [Example 117, ethyl 2-(5-(4-(4-(2,6-difluorobenzyl)-5-oxo-4,5-dihydro-1H-1,2,4-triazol-1-yl)-2-fluorophenoxy)-4-methylthiazol-2-yl)-2-oxoacetate], the IC50 under setting [2] lay in the range of 100 to 1000 nM.
Consider `CCOC1CN(c2cc(Oc3ccc(-n4ncn(Cc5c(F)cccc5F)c4=O)cc3F)c(Cl)cn2)C1` [Example 365, 2-(4-((5-chloro-2-(3-ethoxyazetidin-1-yl)pyridin-4-yl)oxy)-3-fluorophenyl)-4-(2,6-difluorobenzyl)-2,4-dihydro-3H-1,2,4-triazol-3-one], for which the IC50 under setting [1] is less than 100 nM.
Still for that read-out and setting: next, `C[C@H]1[C@@H](O)CN1c1cc(Oc2ccc(-n3ncn(Cc4c(F)cccc4F)c3=O)cc2F)c(F)cn1` [Example 448, 4-(2,6-difluorobenzyl)-2-(3-fluoro-4-((5-fluoro-2-((2S,3S)-3-hydroxy-2-methylazetidin-1-yl)pyridin-4-yl)oxy)phenyl)-2,4-dihydro-3H-1,2,4-triazol-3-one]: less than 100 nM.
As to `O=c1n(Cc2c(F)cccc2F)cnn1-c1ccc(Oc2ccnc(NC3(C(F)(F)F)CC3)c2F)cc1` [Example 362, 4-(2,6-difluorobenzyl)-2-(4-((3-fluoro-2-((1-(trifluoromethyl)cyclopropyl)amino)pyridin-4-yl)oxy)phenyl)-2,4-dihydro-3H-1,2,4-triazol-3-one], under setting [1], the IC50 lay in the range of 1000 to 10000 nM.
`Cc1nc(C(N)=O)sc1Oc1ccc(-n2ncn(Cc3ccccc3F)c2=O)cc1F` [Example 562, 5-(2-fluoro-4-(4-(2-fluorobenzyl)-5-oxo-4,5-dihydro-1H-1,2,4-triazol-1-yl)phenoxy)-4-methylthiazole-2-carboxamide]: under setting [2], the IC50 is less than 100 nM.
Regarding `Cc1nc(Br)sc1Oc1ccc(-n2ncn(Cc3c(F)cccc3C#N)c2=O)cc1F` [Example 7, 2-((1-(4-((2-bromo-4-methylthiazol-5-yl)oxy)-3-fluorophenyl)-5-oxo-1,5-dihydro-4H-1,2,4-triazol-4-yl)methyl)-3-fluorobenzonitrile], the IC50 under setting [3] was less than 100 nM.
As to `COc1cc(Oc2nc(C)c(-n3ncn(Cc4c(F)cccc4F)c3=O)s2)ccn1` [Example 169, 4-(2,6-difluorobenzyl)-2-(2-((2-methoxypyridin-4-yl)oxy)-4-methylthiazol-5-yl)-2,4-dihydro-3H-1,2,4-triazol-3-one], the IC50 under setting [2] is 1000 to 10000 nM.
For `Cc1nc(N2CC(C)(O)C2)sc1Oc1ccc(-n2ncn(Cc3c(F)cccc3F)c2=O)cc1F` [Example 299, 4-(2,6-difluorobenzyl)-2-(3-fluoro-4-((2-(3-hydroxy-3-methylazetidin-1-yl)-4-methylthiazol-5-yl)oxy)phenyl)-2,4-dihydro-3H-1,2,4-triazol-3-one], the IC50 under setting [1] is less than 100 nM.
For `Cc1nn(Cc2ccc(-n3ncn(Cc4c(F)cccc4F)c3=O)cc2)c(C)c1C` [Example 189, 4-(2,6-difluorobenzyl)-2-(4-((3,4,5-trimethyl-1H-pyrazol-1-yl)methyl)phenyl)-2,4-dihydro-3H-1,2,4-triazol-3-one], under setting [2], the IC50 was less than 100 nM.
In the case of `Cc1ccc(C#N)n1Cc1ccc(-n2ncn(Cc3c(F)cccc3F)c2=O)cc1` [Example 206, 1-(4-(4-(2,6-difluorobenzyl)-5-oxo-4,5-dihydro-1H-1,2,4-triazol-1-yl)benzyl)-5-methyl-1H-pyrrole-2-carbonitrile], the IC50 under setting [2] fell in the range of 100 to 1000 nM.
Still for that read-out and setting: next, `Cc1nc(C(=O)NCC2COC2)sc1Oc1ccc(-n2ncn(Cc3ncccc3F)c2=O)cc1F` [Example 607, 5-(2-fluoro-4-(4-((3-fluoropyridin-2-yl)methyl)-5-oxo-4,5-dihydro-1H-1,2,4-triazol-1-yl)phenoxy)-4-methyl-N-(oxetan-3-ylmethyl)thiazole-2-carboxamide]: less than 100 nM.
As for `Cc1ncsc1Oc1ccc(-n2ncn(Cc3cc(Cl)ccn3)c2=O)cc1F` [Example 9, 4-((4-chloropyridin-2-yl)methyl)-2-(3-fluoro-4-((4-methylthiazol-5-yl)oxy)phenyl)-2,4-dihydro-3H-1,2,4-triazol-3-one], the IC50 under setting [3] was in the range of 100 to 1000 nM.
In the case of `CCNC1CN(c2cc(Oc3ccc(-n4ncn(Cc5c(F)cccc5F)c4=O)cc3)ccn2)C1` [Example 318, 4-(2,6-difluorobenzyl)-2-(4-((2-(3-(ethylamino)azetidin-1-yl)pyridin-4-yl)oxy)phenyl)-2,4-dihydro-3H-1,2,4-triazol-3-one], under setting [1], the IC50 fell in the range of 100 to 1000 nM.
As to `CCOC(=O)c1c(C)c(C)nn1Cc1ccc(-n2ncn(Cc3c(F)cccc3F)c2=O)cc1F` [Example 203, ethyl 1-(4-(4-(2,6-difluorobenzyl)-5-oxo-4,5-dihydro-1H-1,2,4-triazol-1-yl)-2-fluorobenzyl)-3,4-dimethyl-1H-pyrazole-5-carboxylate], the IC50 under setting [2] lay in the range of 100 to 1000 nM.
On to `COC(=O)c1nc(C)c(Oc2ccc(-n3nc4n(c3=O)C(c3ccccc3)CC4)cc2F)s1` (stereo not drawn) [Example 34, methyl 5-(2-fluoro-4-(3-oxo-5-phenyl-6,7-dihydro-3H-pyrrolo[2,1-c][1,2,4]triazol-2(5H)-yl)phenoxy)-4-methylthiazole-2-carboxylate], for which the IC50 under setting [3] lay within 100 to 1000 nM.
Take `O=c1n(Cc2c(F)cccc2F)cnn1-c1ccc(Oc2ccncc2)cc1` [Example 438, 4-(2,6-difluorobenzyl)-2-(4-(pyridin-4-yloxy)phenyl)-2,4-dihydro-3H-1,2,4-triazol-3-one]: the IC50 under setting [1] is 100 to 1000 nM.
With `Cc1ncn(Cc2ccc(-n3ncn(Cc4c(F)cccc4F)c3=O)cc2)c1I` [Example 540, 4-(2,6-difluorobenzyl)-2-(4-((5-iodo-4-methyl-1H-imidazol-1-yl)methyl)phenyl)-2,4-dihydro-3H-1,2,4-triazol-3-one], under setting [2], the IC50 was less than 100 nM.
Take `Cn1nc(C(N)=O)cc1Oc1ccc(-n2nc3n(c2=O)C(c2ccccc2)CC3)cc1F` (stereo not drawn) [Example 29, 5-(2-fluoro-4-(3-oxo-5-phenyl-6,7-dihydro-3H-pyrrolo[2,1-c][1,2,4]triazol-2(5H)-yl)phenoxy)-1-methyl-1H-pyrazole-3-carboxamide]: the IC50 under setting [3] was less than 100 nM.
